For series [1], the target named is SIRT6 (Homo sapiens, UniProt Q8N6T7). In words: Fluor-De-Lys (FDL) SIRT6 deacetylation assay. It counts as biochemical. Details: The human full-length SIRT6 gene was inserted into the prokaryotic expression vector (pET-28a (+)); inferred from the pET-28a(+) vector, Ni-NTA purification and Ni-NTA biosensor loading); made in house; host or cells: Escherichia coli BL21 (DE3).

Series [2] has as its target HDAC1 (Homo sapiens, UniProt Q13547). The series is described as follows: Deacetylation activity selectivity, HDAC1. It counts as biochemical. From the text: (§1) Based on the above results, 8a was further investigated in this study. […] To further evaluate the selectivity of 8a for SIRT6, we examined the effect of 8a on the deacetylation activity of other HDAC family members, including HDAC1-HDAC11, SIRT1-SIRT3 and SIRT5. […] Furthermore, to confirm binding of 8a to SIRT6 in cells, we carried out the cellular thermal shift assay (CETSA). The CETSA approach builds on the thermal shift assay concept where ligand binding to its target protein enhances the target protein stability. We observed that the thermal stability of SIRT6 increased after 8a treatment (Figs. 2c, d).

For series [3], the target named is HDAC6 (Homo sapiens, UniProt Q9UBN7). In words: Deacetylation activity selectivity, HDAC6. The format is biochemical.
From the text: as §1

Series [4] has as its target HDAC9 (Homo sapiens, UniProt Q9UKV0). The series is described as follows: Deacetylation activity selectivity, HDAC9. The format is biochemical.
From the text: as §1

For series [5], the system named is H3K9 acetylation (SIRT6 substrate). In words: H3K9 acetylation in Hela cells, western blot. It counts as cell-based. As for the experimental part: Cells were harvested and lysed in a lysis buffer (solarbio, R0010) supplementing 1 mM PMSF and protease inhibitor (TargetMol, USA). […] Then, the membranes were detected by Tanon 5200 (Tanon, Beijing, China).
To investigate the SIRT6 activity at cellular levels, we examined the acetylation status of H3K9, which is a well-known SIRT6 substrate. […] As these compounds can show violet fluorescence, intracellular localizations of these compounds were evaluated by confocal microscopy.
For orientation: Immunoblotting shows a protein as a band on a membrane.

Series [6] deals with SIRT3 (Homo sapiens, UniProt Q9NTG7). In words: Deacetylation activity selectivity, SIRT3. The format is biochemical. The method, then:
Fluor-De-Lys (FDL) assays were used for the examination of the deacetylation activities of sirtuins as described previously. For the detection of SIRT6 activity, the 50-μL reaction mixture contained 5 μM SIRT6, 2.5 mM NAD^+ (β-Nicotinamide adenine dinucleotide hydrate, Sigma, N1636), 75 μM RHKK-Ac-AMC (GL Biochem, Shanghai), compounds/DMSO, and assay buffer. The reactions were incubated at 37 °C for 2 h, added 50 μL stop solution (40 mM nicotinamide, 6 mg/mL trypsin) at 25 °C for 30 min. Fluorescence intensity was measured at an excitation wavelength of 360 nm and an emission wavelength of 460 nm. IC50 values were calculated in GraphPad Prism version 8.00.
as §1

Series [7] has as its target HDAC7 (Homo sapiens, UniProt Q8WUI4). The series is described as follows: Deacetylation activity selectivity, HDAC7. The format is biochemical.
From the text: as §1

Series [8] deals with HUVEC cells. In words: MTT cytotoxicity, normal HUVEC cells. The format is cell-based. The note with it: 72 h.
Series [9] concerns islet α cells and β cells. In words: Immunofluorescence of pancreatic tissues (islet cell composition). The format is in vivo. The note with it: mice, 8a 20 mg/kg, 2 weeks. The method, then: Male C57BL/6 mice (18 ± 2 g, 5 weeks old) were randomly divided into four groups with six mice per group. Acute drug toxicity test was performed. Mice were fasted for 6 h, and basal blood glucose and serum insulin levels were measured by using Accu-Check Performa (Roche, Swiss) glucose meter and Mouse Insulin ELISA kit (Solarbio). Compound 8a (10, 20, 30 mg/kg) was intraperitoneally injected for 10 min, followed by glucose (2 g/kg) intraperitoneally injected. The blood glucose concentration was measured at 30 and 60 min after glucose injection, and the serum insulin content of mice was measured at 60 min. Compound 8a was treated every other day for 2 weeks and tested for chronic drug toxicity. According to the above method, the serum glucose and insulin content of mice were measured.
Pancreatic tissue sections were incubated with primary antibodies overnight at 4 °C. The primary antibodies were as follows: anti-Glucagon (Cell Signaling Technology, Cat#2760), anti-insulin (Cell Signaling Technology, Cat#3014). The sections were stained with secondary antibodies (Alexa Fluor 488-conjugated anti-rabbit IgG, Abcam, Cat#ab150077) for 2 h at 4 °C in dark. After washing with PBS, the sections were stained with DAPI and observed by confocal microscopy (Leica TCS SP8 STED 3X).

Where [10] appears, read: Lineweaver–Burk plot, RHKK-Ac-AMC and NAD+ substrates.

Usually IC50 stands for the concentration at which inhibition is half-maximal. Low readings indicate inhibition by little substance, high ones a need for much substance.

The structures appear in SMILES notation.

SIRT6, sequence (Q8N6T7 whole entry): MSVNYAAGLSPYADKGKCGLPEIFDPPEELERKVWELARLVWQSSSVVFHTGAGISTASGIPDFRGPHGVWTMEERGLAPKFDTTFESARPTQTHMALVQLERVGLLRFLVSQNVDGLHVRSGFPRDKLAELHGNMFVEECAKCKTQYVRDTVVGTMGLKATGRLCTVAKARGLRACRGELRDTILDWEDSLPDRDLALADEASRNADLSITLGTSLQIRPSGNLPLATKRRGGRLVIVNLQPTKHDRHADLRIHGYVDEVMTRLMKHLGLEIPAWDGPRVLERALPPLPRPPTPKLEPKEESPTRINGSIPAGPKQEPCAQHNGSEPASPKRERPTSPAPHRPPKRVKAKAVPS
HDAC7, sequence (Q8WUI4 whole entry): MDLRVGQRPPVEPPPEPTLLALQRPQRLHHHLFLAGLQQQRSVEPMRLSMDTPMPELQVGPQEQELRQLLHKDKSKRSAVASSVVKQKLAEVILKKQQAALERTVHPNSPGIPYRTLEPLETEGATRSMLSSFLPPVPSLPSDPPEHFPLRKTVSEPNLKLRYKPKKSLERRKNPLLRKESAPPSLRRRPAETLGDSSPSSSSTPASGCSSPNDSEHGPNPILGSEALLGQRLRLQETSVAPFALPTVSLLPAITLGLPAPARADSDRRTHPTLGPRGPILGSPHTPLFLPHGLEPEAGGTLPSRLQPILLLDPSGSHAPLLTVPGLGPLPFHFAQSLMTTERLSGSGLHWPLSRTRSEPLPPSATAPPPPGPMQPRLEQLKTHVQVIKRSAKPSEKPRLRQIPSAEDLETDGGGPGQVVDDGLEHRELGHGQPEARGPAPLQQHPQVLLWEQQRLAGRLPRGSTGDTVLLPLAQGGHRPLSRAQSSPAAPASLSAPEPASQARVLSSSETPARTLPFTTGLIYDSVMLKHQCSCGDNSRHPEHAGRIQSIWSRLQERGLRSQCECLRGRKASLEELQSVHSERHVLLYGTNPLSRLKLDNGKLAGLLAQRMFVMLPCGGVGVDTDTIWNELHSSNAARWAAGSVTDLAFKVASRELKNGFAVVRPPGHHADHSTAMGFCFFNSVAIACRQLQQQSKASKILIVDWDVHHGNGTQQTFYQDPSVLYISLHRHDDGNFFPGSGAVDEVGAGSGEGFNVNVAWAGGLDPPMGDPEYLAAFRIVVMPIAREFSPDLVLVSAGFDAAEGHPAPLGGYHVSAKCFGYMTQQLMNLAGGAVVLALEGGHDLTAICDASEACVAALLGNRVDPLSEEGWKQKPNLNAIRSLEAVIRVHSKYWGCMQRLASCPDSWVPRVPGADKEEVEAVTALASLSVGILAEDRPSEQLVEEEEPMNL
HDAC1, sequence (Q13547 whole entry, species assumed): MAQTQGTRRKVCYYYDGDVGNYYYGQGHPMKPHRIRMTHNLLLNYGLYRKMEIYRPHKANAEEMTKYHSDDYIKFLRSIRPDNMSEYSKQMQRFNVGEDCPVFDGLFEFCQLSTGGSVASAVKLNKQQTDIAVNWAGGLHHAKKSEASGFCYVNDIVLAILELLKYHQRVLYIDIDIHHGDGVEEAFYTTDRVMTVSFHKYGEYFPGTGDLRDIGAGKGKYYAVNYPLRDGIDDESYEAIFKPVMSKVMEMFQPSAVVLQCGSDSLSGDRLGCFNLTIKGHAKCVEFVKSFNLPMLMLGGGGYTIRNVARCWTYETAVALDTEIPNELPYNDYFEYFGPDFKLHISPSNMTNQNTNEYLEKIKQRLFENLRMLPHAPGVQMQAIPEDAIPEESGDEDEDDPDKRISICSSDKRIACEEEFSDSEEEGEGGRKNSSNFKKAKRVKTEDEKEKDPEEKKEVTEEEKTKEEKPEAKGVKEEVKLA
HDAC9, sequence (Q9UKV0 whole entry, species assumed): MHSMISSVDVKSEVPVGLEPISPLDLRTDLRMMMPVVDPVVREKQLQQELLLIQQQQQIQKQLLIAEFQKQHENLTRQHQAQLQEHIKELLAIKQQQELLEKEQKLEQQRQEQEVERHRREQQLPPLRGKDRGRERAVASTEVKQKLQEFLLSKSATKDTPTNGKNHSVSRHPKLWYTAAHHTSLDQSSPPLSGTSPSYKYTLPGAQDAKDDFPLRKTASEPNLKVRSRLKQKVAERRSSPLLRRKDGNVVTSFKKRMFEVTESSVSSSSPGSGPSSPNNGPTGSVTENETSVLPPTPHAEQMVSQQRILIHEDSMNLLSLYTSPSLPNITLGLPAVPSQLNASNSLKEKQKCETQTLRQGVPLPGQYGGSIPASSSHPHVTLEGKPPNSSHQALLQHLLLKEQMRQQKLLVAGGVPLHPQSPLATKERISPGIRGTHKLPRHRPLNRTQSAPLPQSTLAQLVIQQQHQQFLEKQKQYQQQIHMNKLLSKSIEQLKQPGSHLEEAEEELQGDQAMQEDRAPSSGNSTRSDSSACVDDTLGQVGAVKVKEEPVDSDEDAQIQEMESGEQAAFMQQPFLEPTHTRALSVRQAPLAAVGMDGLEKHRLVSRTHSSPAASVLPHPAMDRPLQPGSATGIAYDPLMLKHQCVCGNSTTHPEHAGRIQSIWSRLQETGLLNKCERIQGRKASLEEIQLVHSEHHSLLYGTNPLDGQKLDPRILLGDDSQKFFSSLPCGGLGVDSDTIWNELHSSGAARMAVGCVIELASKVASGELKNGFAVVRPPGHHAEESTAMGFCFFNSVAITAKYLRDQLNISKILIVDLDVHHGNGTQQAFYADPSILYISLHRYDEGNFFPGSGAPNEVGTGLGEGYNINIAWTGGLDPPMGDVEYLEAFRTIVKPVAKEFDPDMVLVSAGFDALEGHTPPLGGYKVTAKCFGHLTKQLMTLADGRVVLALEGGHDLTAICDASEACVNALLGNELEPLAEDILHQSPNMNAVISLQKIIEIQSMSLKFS
SIRT3, sequence (Q9NTG7 whole entry, species assumed): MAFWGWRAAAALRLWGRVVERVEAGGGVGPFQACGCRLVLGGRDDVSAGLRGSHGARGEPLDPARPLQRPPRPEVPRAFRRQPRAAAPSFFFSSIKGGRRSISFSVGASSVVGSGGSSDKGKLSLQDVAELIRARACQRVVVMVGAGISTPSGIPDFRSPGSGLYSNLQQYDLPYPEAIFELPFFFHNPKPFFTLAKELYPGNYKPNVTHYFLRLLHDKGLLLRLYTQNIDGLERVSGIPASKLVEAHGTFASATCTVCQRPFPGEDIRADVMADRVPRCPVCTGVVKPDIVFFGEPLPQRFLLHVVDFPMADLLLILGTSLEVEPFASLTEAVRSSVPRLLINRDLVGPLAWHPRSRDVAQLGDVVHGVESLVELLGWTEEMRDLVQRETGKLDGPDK
HDAC6, sequence (Q9UBN7 whole entry, species assumed): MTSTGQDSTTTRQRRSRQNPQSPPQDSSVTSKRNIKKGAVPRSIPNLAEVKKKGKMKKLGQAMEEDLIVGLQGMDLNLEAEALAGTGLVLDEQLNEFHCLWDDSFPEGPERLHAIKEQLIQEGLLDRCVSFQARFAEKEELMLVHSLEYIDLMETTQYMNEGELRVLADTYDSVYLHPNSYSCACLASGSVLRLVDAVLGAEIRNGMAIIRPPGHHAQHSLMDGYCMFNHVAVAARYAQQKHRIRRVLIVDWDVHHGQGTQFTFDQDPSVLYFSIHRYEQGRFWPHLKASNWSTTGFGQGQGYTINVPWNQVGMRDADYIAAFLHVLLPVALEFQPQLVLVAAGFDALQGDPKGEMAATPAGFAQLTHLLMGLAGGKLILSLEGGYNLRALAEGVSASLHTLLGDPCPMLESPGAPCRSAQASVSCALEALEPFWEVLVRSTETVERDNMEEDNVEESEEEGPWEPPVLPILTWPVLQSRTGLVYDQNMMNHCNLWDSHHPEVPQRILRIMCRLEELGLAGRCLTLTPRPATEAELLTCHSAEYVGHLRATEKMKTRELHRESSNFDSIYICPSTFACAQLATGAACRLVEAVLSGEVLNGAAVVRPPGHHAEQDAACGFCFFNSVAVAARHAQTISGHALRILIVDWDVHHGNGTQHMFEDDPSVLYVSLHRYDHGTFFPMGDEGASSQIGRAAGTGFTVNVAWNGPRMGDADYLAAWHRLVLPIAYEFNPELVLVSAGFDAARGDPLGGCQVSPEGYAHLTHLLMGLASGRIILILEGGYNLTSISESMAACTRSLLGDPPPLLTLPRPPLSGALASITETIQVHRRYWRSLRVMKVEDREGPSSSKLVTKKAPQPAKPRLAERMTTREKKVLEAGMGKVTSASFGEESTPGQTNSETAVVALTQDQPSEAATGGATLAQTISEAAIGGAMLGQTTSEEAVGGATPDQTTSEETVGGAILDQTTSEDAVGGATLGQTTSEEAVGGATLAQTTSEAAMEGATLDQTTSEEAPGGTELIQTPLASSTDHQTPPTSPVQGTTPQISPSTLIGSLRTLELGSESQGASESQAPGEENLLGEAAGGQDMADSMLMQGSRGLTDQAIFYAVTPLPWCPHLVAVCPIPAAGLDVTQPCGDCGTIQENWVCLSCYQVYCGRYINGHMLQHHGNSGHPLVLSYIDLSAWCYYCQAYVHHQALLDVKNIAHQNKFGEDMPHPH

On to `Br.CN(C)C(SCCCCCCn1cnc2c(-c3cc(Br)c(Br)[nH]3)nccc21)=[N+](C)C.[Cl-]` [Compound 8a], for which the Km entry in [1] (setting [10]) was “did not alter”. In addition, the Vmax entry in [1] (setting [10]) is “obviously decreased”. Also, the inhibition mode result in series [1] (competition and enzymatic kinetic assays) is on record as “non-competitive inhibitor”. Further, the IC50 in series [2] is over 200 µM; in series [3], 96.8 ± 1.98 µM; in series [4], over 200 µM; in series [6], over 200 µM; in [7], over 200 µM; in series [8], 41 µM. For the same compound, in series [5], the “acetylation levels of H3K9” value is given as “significantly increased”. Further, the “number of α cells and β cells in the islets” value in series [9] was “no significant difference”.

The values above are taken from paper PMC10403574, “Discovery of a pyrrole-pyridinimidazole derivative as novel SIRT6 inhibitor for sensitizing pancreatic cancer to gemcitabine” (Cell Death & Disease, 2023).
